# Measurements as given in patent publication US20220135591A1, “HETEROCYCLIC COMPOUNDS AS INHIBITORS OF MONOACYLGLYCEROL LIPASE (MAGL)” (Hoffmann-La Roche Inc., priority 2019, published 2022).
# Target: T1, MAGL (Homo sapiens, UniProt Q99685)
# T1 sequence (Q99685 1-303): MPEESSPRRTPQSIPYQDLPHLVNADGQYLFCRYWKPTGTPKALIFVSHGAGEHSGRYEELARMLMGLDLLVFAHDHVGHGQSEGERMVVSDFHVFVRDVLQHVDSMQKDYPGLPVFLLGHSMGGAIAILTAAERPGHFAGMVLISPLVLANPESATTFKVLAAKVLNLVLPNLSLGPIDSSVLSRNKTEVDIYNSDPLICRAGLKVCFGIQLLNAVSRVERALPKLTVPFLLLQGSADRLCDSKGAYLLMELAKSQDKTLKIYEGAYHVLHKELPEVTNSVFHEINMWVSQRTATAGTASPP
# Assay: 2-AG assay: MAGL inhibitory activity by hydrolysis of 2-arachidonoylglycerol to arachidonic acid, mass spectrometry
# Format: biochemical
# Conditions: 2-AG assay (values marked [b])
# Method: Alternatively, compounds were profiled for MAGL inhibitory activity by determining the enzymatic activity by following the hydrolysis of the natural substrate 2-arachidonoylglycerol (2-AG) resulting in arachidonic acid, which can be followed by mass spectrometry. This assay is hereinafter abbreviated “2-AG assay”.
# The 2-AG assay was carried out in 384 well assay plates (PP, Greiner Cat #784201) in a total volume of 20 μL. Compound dilutions were made in 100% DMSO (VWR Chemicals 23500.297) in a polypropylene plate in 3-fold dilution steps to give a final concentration range in the assay from 12.5 μM to […]. 0.25 μL compound dilutions (100% DMSO) were added to 9 μL MAGL in assay buffer (50 mM TRIS (GIBCO, 15567-027), 1 mM EDTA (Fluka, 03690-100 mL), 0.01% (v/v) Tween. After shaking, the plate was incubated for 15 min at RT. To start the reaction, 10 μL 2-arachidonoylglycerol in assay buffer was added. The final concentrations in the assay was […] and 8 μM 2-arachidonoylglyerol. After shaking and 30 min incubation at RT, the reaction was quenched by the addition of 40 μL of ACN containing 4 μM of d8-arachidonic acid. The amount of arachidonic acid was traced by an online SPE system (Agilent Rapidfire) coupled to a triple quadrupole mass spectrometer (Agilent 6460). A C18 SPE cartridge (G9205A) was used in an ACN/water liquid setup. The mass spectrometer was operated in negative electrospray mode following the mass transitions 303.1→259.1 for arachidonic acid and 311.1→267.0 for d8-arachidonic acid. The activity of the compounds was calculated based on the ratio of intensities [arachidonic acid/d8-arachidonic acid].
row,SMILES,IC50 [nM]
1,"Cc1cc(C(=O)N2CCN(c3nc4nc(Cl)ccc4o3)CC2)ccc1-c1ncn(C(C)(C)C)n1 [Example 97, (4-(1-(tert-butyl)-1H-1,2,4-triazol-3-yl)-3-methylphenyl)(4-(5-chlorooxazolo[4,5-b]pyridin-2-yl)piperazin-1-yl)methanone]",12
2,"Cc1ccc2oc(N3CCN(C(=O)c4ccc(-c5cn(CC(F)(F)F)nn5)cc4)CC3)nc2n1 [Example 99, (4-(5-methyloxazolo[4,5-b]pyridin-2-yl)piperazin-1-yl)(4-(1-(2,2,2-trifluoroethyl)-1H-1,2,3-triazol-4-yl)phenyl)methanone]",523
3,"CC1(Cn2cc(-c3ccc(C(=O)N4CCN(c5nc6nc(Cl)ccc6o5)CC4)cc3)nn2)COC1 [Example 101, (4-(5-chlorooxazolo[4,5-b]pyridin-2-yl)piperazin-1-yl)(4-(1-((3-methyloxetan-3-yl)methyl)-1H-1,2,3-triazol-4-yl)phenyl)methanone]",609
4,"O=C(C#Cc1ccccc1)N1CCN(c2nc3nc(Cl)ccc3o2)CC1 [Example 102, 1-(4-(5-chlorooxazolo[4,5-b]pyridin-2-yl)piperazin-1-yl)-3-phenylprop-2-yn-1-one]",932
5,"O=C(C#Cc1ccc(Cl)cc1)N1CCN(c2nc3nc(Cl)ccc3o2)CC1 [Example 103, 1-(4-(5-chlorooxazolo[4,5-b]pyridin-2-yl)piperazin-1-yl)-3-(4-chlorophenyl)prop-2-yn-1-one]",452
6,"C#Cc1ccc(C(=O)N2CCN(c3nc4nc(Cl)ccc4o3)CC2)cc1OC [Example 104, (4-(5-chlorooxazolo[4,5-b]pyridin-2-yl)piperazin-1-yl)(4-ethynyl-3-methoxyphenyl)methanone]",109
7,"CC(C)(C)n1cnc(-c2ccc(C(=O)N3CCN(c4nc5nc(Cl)ccc5o4)CC3)cc2F)n1 [Example 107, [4-(1-tert-butyl-1,2,4-triazol-3-yl)-3-fluorophenyl]-[4-(5-chloro-[1,3]oxazolo[4,5-b]pyridin-2-yl)piperazin-1-yl]methanone]",15
8,"Cc1ccc2oc(N3CCN(C(=O)c4ccc(-c5cn(C6(C)COC6)nn5)cc4)CC3)nc2n1 [Example 109, [4-(5-methyl-[1,3]oxazolo[4,5-b]pyridin-2-yl)piperazin-1-yl]-[4-[1-(3-methyloxetan-3-yl)triazol-4-yl]phenyl]methanone]",2520
9,"CC1(n2cc(-c3ccc(C(=O)N4CCN(c5nc6nc(Cl)ccc6o5)CC4)cc3)nn2)COC1 [Example 110, [4-(5-chloro-[1,3]oxazolo[4,5-b]pyridin-2-yl)piperazin-1-yl]-[4-[1-(3-methyloxetan-3-yl)triazol-4-yl]phenyl]methanone]",859
10,"O=C(c1ccc(-c2cn(CC3COC3)nn2)cc1)N1CCN(c2nc3nc(Cl)ccc3o2)CC1 [Example 114, [4-(5-chloro-[1,3]oxazolo[4,5-b]pyridin-2-yl)piperazin-1-yl]-[4-[1-(oxetan-3-ylmethyl)triazol-4-yl]phenyl]methanone]",5550
11,"Cn1nc(C(C)(C)C)nc1-c1ccc(C(=O)N2CCN(c3nc4nc(Cl)ccc4o3)CC2)cc1 [Example 119, [4-(5-tert-butyl-2-methyl-1,2,4-triazol-3-yl)phenyl]-[4-(5-chlorooxazolo[4,5-b]pyridin-2-yl)piperazin-1-yl]methanone]",140

# Continued by falling IC50, values first:
row,IC50 [nM],SMILES
1,4270,"Cc1ccc2oc(N3CCN(C(=O)c4ccc(-c5cn(CC6COC6)nn5)cc4)CC3)nc2n1 [Example 113, [4-(5-methyl-[1,3]oxazolo[4,5-b]pyridin-2-yl)piperazin-1-yl]-[4-[1-(oxetan-3-ylmethyl)triazol-4-yl]phenyl]methanone]"
2,1080,"Cc1ccc2oc(N3CCN(C(=O)c4ccc(-c5cn(CC6(C)COC6)nn5)cc4)CC3)nc2n1 [Example 100, (4-(5-methyloxazolo[4,5-b]pyridin-2-yl)piperazin-1-yl)(4-(1-((3-methyloxetan-3-yl)methyl)-1H-1,2,3-triazol-4-yl)phenyl)methanone]"
3,368,"Cc1ccc2oc(N3CCN(C(=O)c4cc(O)c(-c5nnc(C(C)(C)C)o5)c(F)c4)CC3)nc2n1 [Example 118, (4-(5-(tert-butyl)-1,3,4-oxadiazol-2-yl)-3-fluoro-5-hydroxyphenyl)(4-(5-methyloxazolo[4,5-b]pyridin-2-yl)piperazin-1-yl)methanone]"
4,154,"Cc1ccc2oc(N3CCN(C(=O)c4ccc(-c5cn(C6(C(F)(F)F)CC6)nn5)cc4)CC3)nc2n1 [Example 108, [4-(5-methyl-[1,3]oxazolo[4,5-b]pyridin-2-yl)piperazin-1-yl]-[4-[1-[1-(trifluoromethyl)cyclopropyl]triazol-4-yl]phenyl]methanone]"
5,144,"O=C(c1ccc(-c2cn(CC(F)(F)F)nn2)cc1)N1CCN(c2nc3nc(Cl)ccc3o2)CC1 [Example 98, (4-(5-chlorooxazolo[4,5-b]pyridin-2-yl)piperazin-1-yl)(4-(1-(2,2,2-trifluoroethyl)-1H-1,2,3-triazol-4-yl)phenyl)methanone]"
6,88,"Cc1ccc2oc(N3CCN(C(=O)c4ccc(-c5cn(C67CC(C6)C7)nn5)cc4)CC3)nc2n1 [Example 94, (4-(1-(bicyclo[1.1.1]pentan-1-yl)-1H-1,2,3-triazol-4-yl)phenyl)(4-(5-methyloxazolo[4,5-b]pyridin-2-yl)piperazin-1-yl)methanone]"
7,42,"O=C(c1ccc(-c2cn(C34CC(C3)C4)nn2)cc1)N1CCN(c2nc3nc(Cl)ccc3o2)CC1 [Example 95, (4-(1-(bicyclo[1.1.1]pentan-1-yl)-1H-1,2,3-triazol-4-yl)phenyl)(4-(5-chlorooxazolo[4,5-b]pyridin-2-yl)piperazin-1-yl)methanone]"
8,36,"Cc1ccc2oc(N3CCN(C(=O)c4ccc(-c5ncn(C(C)(C)C)n5)c(F)c4)CC3)nc2n1 [Example 106, [4-(1-tert-butyl-1,2,4-triazol-3-yl)-3-fluorophenyl]-[4-(5-methyl-[1,3]oxazolo[4,5-b]pyridin-2-yl)piperazin-1-yl]methanone]"
9,34,"Cc1ccc2oc(N3CCN(C(=O)c4ccc(-c5nnc(C(C)(C)C)o5)c(Cl)c4)CC3)nc2n1 [Example 117, (4-(5-(tert-butyl)-1,3,4-oxadiazol-2-yl)-3-chlorophenyl)(4-(5-methyloxazolo[4,5-b]pyridin-2-yl)piperazin-1-yl)methanone]"
10,28,"Cc1ccc2oc(N3CCN(C(=O)c4ccc(-c5ncn(C(C)(C)C)n5)c(C(F)(F)F)c4)CC3)nc2n1 [Example 111, [4-(1-tert-butyl-1,2,4-triazol-3-yl)-3-(trifluoromethyl)phenyl]-[4-(5-methyl-[1,3]oxazolo[4,5-b]pyridin-2-yl)piperazin-1-yl]methanone]"
11,23,"Cc1ccc2oc(N3CCN(C(=O)c4ccc(-c5ncn(C(C)(C)C)n5)c(C)c4)CC3)nc2n1 [Example 96, (4-(1-(tert-butyl)-1H-1,2,4-triazol-3-yl)-3-methylphenyl)(4-(5-methyloxazolo[4,5-b]pyridin-2-yl)piperazin-1-yl)methanone]"
12,13,"Cc1ccc2oc(N3CCN(C(=O)c4ccc(-c5nnc(C(C)(C)C)o5)c(C(F)(F)F)c4)CC3)nc2n1 [Example 121, [4-(5-tert-butyl-1,3,4-oxadiazol-2-yl)-3-(trifluoromethyl)phenyl]-[4-(5-methyloxazolo[4,5-b]pyridin-2-yl)piperazin-1-yl]methanone]"
13,12,"CC(C)(C)n1cnc(-c2ccc(C(=O)N3CCN(c4nc5nc(Cl)ccc5o4)CC3)cc2C(F)(F)F)n1 [Example 112, [4-(1-tert-butyl-1,2,4-triazol-3-yl)-3-(trifluoromethyl)phenyl]-[4-(5-chloro-[1,3]oxazolo[4,5-b]pyridin-2-yl)piperazin-1-yl]methanone]"
14,9,"O=C(c1ccc(-c2noc(C34CC(C3)C4)n2)cc1)N1CCN(c2nc3nc(Cl)ccc3o2)CC1 [Example 105, [4-[5-(3-bicyclo[1.1.1]pentanyl)-1,2,4-oxadiazol-3-yl]phenyl]-[4-(5-chlorooxazolo[4,5-b]pyridin-2-yl)piperazin-1-yl]methanone]"
15,8,"CC(C)(C)c1nnc(-c2ccc(C(=O)N3CCN(c4nc5nc(Cl)ccc5o4)CC3)cc2Cl)o1 [Example 115, (4-(5-(tert-butyl)-1,3,4-oxadiazol-2-yl)-3-chlorophenyl)(4-(5-chlorooxazolo[4,5-b]pyridin-2-yl)piperazin-1-yl)methanone]"
16,4,"Cc1cc(C(=O)N2CCN(c3nc4nc(Cl)ccc4o3)CC2)cnc1-n1cc(C(C)(C)C)cn1 [Example 120, [6-(4-tert-butylpyrazol-1-yl)-5-methylpyridin-3-yl]-[4-(5-chloro-[1,3]oxazolo[4,5-b]pyridin-2-yl)piperazin-1-yl]methanone]"
